Measured values from PMC4287394 (Clinical cancer research : an official journal of the …, 2014).

Legend:
[1] = cited from earlier work
advanced solid tumors = assay: Antitumor activity; format: in vivo, human
[2] = system: IGROV1 ovarian cancer xenografts; conditions: oral dose of 150mg/kg; IGROV1 ovarian cancer xenograft; cited from earlier work
[3] = system: purified recombinant human PI3K p110β; conditions: read-out: IC50 p110β; purified recombinant human PI3K isoforms; cited from earlier work
[4] = Plasma pharmacokinetics in patients; format: in vivo, human; conditions: for half-life / AUC(0-t) / Cmax / Tmax: human, plasma; for AUC(0-t): AUC 0-24, geometric mean; for Cmax: geometric mean; for Tmax: median
Class I PI3K = conditions: cited from earlier work
[5] = system: phospho-AKT (Ser473) in platelet-rich plasma; assay: Phospho-AKT in platelet-rich plasma; format: in vivo, human
[6] = system: phospho-S6 (Ser235/236) in tumor tissue; assay: Phospho-S6 immunohistochemistry in paired tumor biopsies; format: in vivo, human
[7] = system: purified recombinant human PI3K p110δ; conditions: read-out: IC50 p110δ; purified recombinant human PI3K isoforms; cited from earlier work
plasma glucose = conditions: 330mg, cycle 1 day 1, 1 hour from baseline
[8] = system: purified recombinant human PI3K p110γ; conditions: read-out: IC50 p110γ; purified recombinant human PI3K isoforms; cited from earlier work
[9] = system: U87MG glioblastoma xenografts; conditions: oral dose of 150mg/kg; U87MG glioblastoma xenograft; cited from earlier work
plasma insulin = conditions: 330mg, cycle 1 day 1, 1 hour from baseline
mTOR = conditions: cited from earlier work
tumor 18F-FDG uptake = assay: Whole body 18F-FDG-PET; format: in vivo, human
[10] = system: purified recombinant human PI3K p110α; conditions: read-out: IC50 p110α; purified recombinant human PI3K isoforms; cited from earlier work
PI3K signaling = assay: Multimodal pharmacodynamic assessment; format: in vivo, human; conditions: regardless of molecular genetic status
[11] = system: phospho-AKT (Serine 473) in tumor tissue; assay: Phospho-AKT immunohistochemistry in paired tumor biopsies; format: in vivo, human
[12] = 9 patients with PI3K pathway alterations
[13] = patient with BRAF V600E-mutated metastatic melanoma, 330mg once-daily 21/28
[14] = patient with cKIT exon 9 mutant gastrointestinal stromal tumor, 450mg once-daily
[15] = platinum-refractory ovarian cancer patient, 100mg once-daily 21/28
[16] = oral, 15 mg, Day 1, 15 mg QD, 4 patients
[17] = oral, 15 mg, Day 15, 15 mg QD, 4 patients
[18] = oral, 30 mg, Day 1, 30 mg QD, 3 patients
[19] = oral, 30 mg, Day 15, 30 mg QD, 3 patients
[20] = oral, 45 mg, Day 1, 45 mg QD, 4 patients
[21] = oral, 45 mg, Day 15, 45 mg QD, 4 patients
[22] = oral, 60 mg, Day 1, 60 mg QD, 4 patients
[23] = oral, 60 mg, Day 15, 60 mg QD, 3 patients
[24] = oral, 80 mg, Day 1, 80 mg QD, 3 patients
[25] = oral, 80 mg, Day 15, 80 mg QD, 3 patients
[26] = oral, 100 mg, Day 1, 100 mg QD, 5 patients
[27] = oral, 100 mg, Day 15, 100 mg QD, 3 patients
[28] = oral, 130 mg, Day 1, 130 mg QD, 3 patients
[29] = oral, 130 mg, Day 15, 130 mg QD, 3 patients
[30] = oral, 180 mg, Day 1, 180 mg QD, 3 patients
[31] = oral, 180 mg, Day 15, 180 mg QD, 3 patients
[32] = oral, 245 mg, Day 1, 245 mg QD, 3 patients
[33] = oral, 245 mg, Day 15, 245 mg QD, 3 patients
[34] = oral, 330 mg, Day 1, 330 mg QD, 17 patients
[35] = oral, 330 mg, Day 15, 330 mg QD, 17 patients
[36] = oral, 340 mg, Day 1, 340 mg QD, 7 patients
[37] = oral, 340 mg, Day 15, 340 mg QD, 6 patients
[38] = oral, 400 mg, Day 1, 400 mg QD, 1 patient
[39] = oral, 450 mg, Day 1, 450 mg QD, 3 patients
[40] = oral, 450 mg, Day 15, 450 mg QD, 3 patients

CS(=O)(=O)N1CCN(Cc2cc3nc(-c4cccc5[nH]ncc45)nc(N4CCOCC4)c3s2)CC1 [pictilisib, 2-(1H-indazol-4-yl)-6-(4-methanesulfonyl-piperazin-1-ylmethyl)-4-morpholin-4-yl-t hieno[3,2-d]pyrimidine]
Central nervous system (CNS) penetration compared with BKM120 [1]: lower | Patients with RECIST-based response (advanced solid tumors; [12]): none | Patients with response by GCIG-CA125 criteria (advanced solid tumors; [12]): 1 | Response by RECIST (advanced solid tumors; [13]): partial response | Time on pictilisib (advanced solid tumors; [13]): 9.5 months | Duration of stable disease (advanced solid tumors; [14]): 7.5 months | Duration of radiological stable disease (RECIST) (advanced solid tumors; [15]): 4 months | Serum CA125 after treatment (advanced solid tumors; platinum-refractory ovarian cancer patient, decrease from 1214 U/ml): 400 U/ml | growth inhibition [2]: 80% | IC50 [3]: 33 nM | Increase in exposure (Cmax and AUC0-24) with dose ([4]; across the dose levels studied, 15-450mg): dose-proportional | half-life ([4]; oral): 13.1 to 24.1 h | half-life ([4]; oral, 15 mg): 19.2 h | AUC(0-t) [4, 16]: 0.978 µM·h | AUC(0-t) [4, 17]: 1.35 µM·h | Cmax [4, 16]: 112 nM | Cmax [4, 17]: 116 nM | Tmax [4, 16]: 2 h | Tmax [4, 17]: 1.5 h | half-life ([4]; oral, 30 mg): 24.1 h | AUC(0-t) [4, 18]: 1.18 µM·h | AUC(0-t) [4, 19]: 1.9 µM·h | Cmax [4, 18]: 144 nM | Cmax [4, 19]: 179 nM | Tmax [4, 18]: 2 h | Tmax [4, 19]: 1 h | half-life ([4]; oral, 45 mg): 19.5 h | AUC(0-t) [4, 20]: 2.77 µM·h | AUC(0-t) [4, 21]: 4.09 µM·h | Cmax [4, 20]: 362 nM | Cmax [4, 21]: 436 nM | Tmax [4, 20]: 2 h | Tmax [4, 21]: 2 h | half-life ([4]; oral, 60 mg): 18.8 h | AUC(0-t) [4, 22]: 2.02 µM·h | AUC(0-t) [4, 23]: 2.78 µM·h | Cmax [4, 22]: 242 nM | Cmax [4, 23]: 270 nM | Tmax [4, 22]: 2 h | Tmax [4, 23]: 3 h | half-life ([4]; oral, 80 mg): 20.1 h | AUC(0-t) [4, 24]: 5.45 µM·h | AUC(0-t) [4, 25]: 9.86 µM·h | Cmax [4, 24]: 632 nM | Cmax [4, 25]: 779 nM | Tmax [4, 24]: 2 h | Tmax [4, 25]: 3 h | half-life ([4]; oral, 100 mg): 14.6 h | AUC(0-t) [4, 26]: 3.19 µM·h | AUC(0-t) [4, 27]: 5.64 µM·h | Cmax [4, 26]: 362 nM | Cmax [4, 27]: 751 nM | Tmax [4, 26]: 2 h | Tmax [4, 27]: 2 h | half-life ([4]; oral, 130 mg): 13.1 h | AUC(0-t) [4, 28]: 2.99 µM·h | AUC(0-t) [4, 29]: 5.03 µM·h | Cmax [4, 28]: 359 nM | Cmax [4, 29]: 457 nM | Tmax [4, 28]: 2 h | Tmax [4, 29]: 1 h | half-life ([4]; oral, 180 mg): 17.1 h | AUC(0-t) [4, 30]: 5.95 µM·h | AUC(0-t) [4, 31]: 8.25 µM·h | Cmax [4, 30]: 611 nM | Cmax [4, 31]: 783 nM | Tmax [4, 30]: 2 h | Tmax [4, 31]: 1 h | half-life ([4]; oral, 245 mg): 16.8 h | AUC(0-t) [4, 32]: 8.18 µM·h | AUC(0-t) [4, 33]: 11.3 µM·h | Cmax [4, 32]: 994 nM | Cmax [4, 33]: 1370 nM | Tmax [4, 32]: 2 h | Tmax [4, 33]: 1 h | half-life ([4]; oral, 330 mg): 15.7 h | AUC(0-t) [4, 34]: 14.4 µM·h | AUC(0-t) [4, 35]: 22.8 µM·h | Cmax [4, 34]: 1520 nM | Cmax [4, 35]: 2070 nM | Tmax [4, 34]: 2 h | Tmax [4, 35]: 3 h | half-life ([4]; oral, 340 mg): 20.9 h | AUC(0-t) [4, 36]: 14.9 µM·h | AUC(0-t) [4, 37]: 16.5 µM·h | Cmax [4, 36]: 1680 nM | Cmax [4, 37]: 1950 nM | Tmax [4, 36]: 2 h | Tmax [4, 37]: 1 h | half-life ([4]; oral, 400 mg): 14.8 h | AUC(0-t) [4, 38]: 15.6 µM·h | Cmax [4, 38]: 1650 nM | Tmax [4, 38]: 2 h | half-life ([4]; oral, 450 mg): 15 h | AUC(0-t) [4, 39]: 13.9 µM·h | AUC(0-t) [4, 40]: 23.5 µM·h | Cmax [4, 39]: 1950 nM | Cmax [4, 40]: 2640 nM | Tmax [4, 39]: 2 h | Tmax [4, 40]: 2 h | Tmax ([4]; po, fasting, all doses): 2 h | Observed in vitro potency compared with BKM120 (Class I PI3K): higher | Inhibition of phospho-AKT level in platelet rich plasma ([5]; 1 to 3 hours post-dose at the RP2D (330mg)): up to 90% | Suppression of phosphorylated serine-473 AKT in platelet rich plasma ([5]; 3 hours post-dose at the MTD): > 90% | Phospho-AKT in platelet rich plasma, sustained effect, % of baseline ([5]; 24 hours post-dose at the RP2D (330mg)): 50% | Reduction in tumor phospho-S6 expression [6, 14]: 75% | Reduction in tumor phospho-S6 expression [6, 15]: 56% | IC50 [7]: 3 nM | Mean fold-change (post- over pre-treatment) in plasma glucose (plasma glucose): 1.18 (95%CI: 1.10-1.26) | IC50 [8]: 75 nM | growth inhibition [9]: 98% | Mean fold-change (post- over pre-treatment) in plasma insulin (plasma insulin): 3.58 (95%CI: 2.33-5.49) | fold less activity against mTOR compared to p110α (mTOR): 193 fold | Patients with metabolic partial response by EORTC-PET criteria (tumor 18F-FDG uptake; 32 evaluable patients): 22% | Patients with metabolic partial response by EORTC-PET criteria (>25% reduction in mean SUVmax) (tumor 18F-FDG uptake; 32 evaluable patients): 7 of 32 and Seven of 32 | Overall median change in SUVmax (tumor 18F-FDG uptake; all evaluable patients): −13% | Range of change in SUVmax (tumor 18F-FDG uptake; all evaluable patients): −47 to 22% | Dose levels showing reduction from baseline of 18F-FDG-tracer uptake (tumor 18F-FDG uptake; in vivo): ≥ 45 mg | Reduction in SUVmax on 18F-FDG-PET (tumor 18F-FDG uptake; [14]): 47% | Reduction in mean SUVmax in subcapsular liver metastases (tumor 18F-FDG uptake; [15]): 30% | IC50 [10]: 3 nM | Dose levels with on-target pharmacodynamic activity (PI3K signaling): ≥ 100 mg | Decrease in AKT phosphorylation in tumor biopsies ([11]; AUC >20uM.hr on day 15, 2 of 3 patients): 100% | Suppression of phosphorylated serine-473 AKT in tumor ([11]; doses associated with AUC >20uM.hr): > 90%
